Measured values taken from patent publication US10626148B2, “Glycopeptides conjugates and uses thereof” (priority 2015, dated 2020).
Like-named read-outs stand apart in the source and are kept apart here.

Assays:
[1] = system: Methicillin-resistant S. aureus (ATCC 33591); experiment: MIC, micro-dilution broth, MRSA; type: cell-based
Method: (§1) Test compounds were assayed in a micro-dilution broth format. Stock solutions were made by serially diluting the compounds using autoclaved millipore water or broth media. The antibacterial activity of the compounds was determined against gram positive bactreia like methicillin-resistant S. aureus (MRSA), vancomycin-intermediate-resistant S. aureus (VISA), vancomycin-sensitive E. faecium (VSE), vancomycin-resistant E. faecalis and vancomycin-resistant E. faecium (VRE). Antibacterial activity of dipicolyl-vancomycin conjugate conjugate (4) in combination with meropemem was determined against gram-negative bacteria such as K. pneumoniae ATCC BAA2146, clinical isolates K. pneumoniae R3949, K. pneumoniae R3934, E. coli R3336 and A. baumanii R676. Bacteria, to be tested, were grown for about 10 h in the suitable media, MRSA, VISA and gram negative bacteria were grown in Yeast-dextrose broth (about 1 g of beef extract, about 2 g of yeast extract, about 5 g of peptone and about 5 g of NaCl in about 1000 mL of sterile distilled water (pH-7)). For solid media, about 5% agar was used along with above mentioned composition. VSE and VRE were cultured in Brain Heart Infusion broth (Himedia). The bacterial samples were freeze dried and stored at −80° C. About 5 μL of these stocks were added to about 3 mL of the nutrient broth or Brain Heart Infusion broth and the culture was grown for about 6 h at about 37° C. prior to the experiments. This 6 h grown culture gives about 10^9 cfu/mL and this was determined by spread plating method. The 6 h grown culture was diluted to give effective cell concentration of about 10^5 cfu/mL which was then used for determining MIC. Compounds were serially diluted, in sterile water (2-fold dilution is employed) in a way that the working concentration was about 10 μM for MRSA, and VSE while for VRE, VISA and gram negative bacteria; it was about 100 μM. About 50 μL of these serial dilutions were added to the wells of 96 well plate followed by the addition of about 150 μL of bacterial solution. The plates were then incubated at about 37° C., 150 rpm in the incubator and O.D at 620 nm was recorded at an interval of about 24 h using TECAN (Infinite series, M200 pro) Plate Reader. Each concentration had triplicate values and the whole experiment was done at least twice and the MIC value was determined by taking the average of triplicate O.D. values for each concentration and plotting it against concentration. The data was then subjected to sigmoidal fitting.

[2] = system: Vancomycin-resistant E. faecium (VanA, ATCC 51559); experiment: MIC, micro-dilution broth, VREm; type: cell-based
Method: as §1

[3] = system: Staphylococci (MRSA and VISA) and Enterococci (VREm and VREs); experiment: Antibacterial activity, gram positive panel; type: cell-based; conditions: VSEm
Method: (§2) Test compounds were assayed in a micro-dilution broth format. Stock solutions were made by serially diluting the compounds using autoclaved millipore water or broth media. The antibacterial activity of the compounds was determined against gram positive bactreia like methicillin-resistant S. aureus (MRSA), vancomycin-intermediate-resistant S. aureus (VISA), vancomycin-sensitive E. faecium (VSE), vancomycin-resistant E. faecalis and vancomycin-resistant E. faecium (VRE). Antibacterial activity of dipicolyl-vancomycin conjugate conjugate (4) in combination with meropemem was determined against gram-negative bacteria such as K. pneumoniae ATCC BAA2146, clinical isolates K. pneumoniae R3949, K. pneumoniae R3934, E. coli R3336 and A. baumanii R676. […] This 6 h grown culture gives about 10^9 cfu/mL and this was determined by spread plating method. […] The plates were then incubated at about 37° C., 150 rpm in the incubator and O.D at 620 nm was recorded at an interval of about 24 h using TECAN (Infinite series, M200 pro) Plate Reader. Each concentration had triplicate values and the whole experiment was done at least twice and the MIC value was determined by taking the average of triplicate O.D. values for each concentration and plotting it against concentration. […]

[4] = system: meropenem-resistant NDM-1 bacteria; experiment: Combination with meropenem against NDM-1 gram negative bacteria; type: cell-based; conditions: in combination with meropenem
Method: as §2, with “R676. Bacteria, to be tested, were grown for about 10 h in the suitable media, MRSA, VISA and gram negative bacteria were grown in Yeast-dextrose broth (about 1 g of beef extract, about 2 g of yeast extract, about 5 g of peptone and about 5 g of NaCl in about 1000 mL of sterile distilled water (pH-7)).” for “R676.”
(§3) Then, the antibacterial activities of Dipicolyl-vancomycin conjugate (4) is checked in combination with meropenem against New-Delhi β-lactamase producing gram negative bacteria such as K. pneumoniae BAA2146, clinical isolates K. pneumoniae R3949, K. pneumoniae R3934, E. coli R3336 and A. baumanii R676. […] Further we have also evaluated the antibacterial activity of dipicolyl-vancomycin conjugate (4) in presence of zinc sulphate, wherein it forms dipicolyl-vancomycin-zinc complex (5).

[5] = system: Vancomycin-sensitive E. faecium (ATCC 19634); experiment: MIC, micro-dilution broth, VSEm; type: cell-based
Method: as §1

[6] = system: Vancomycin-resistant E. faecalis (VanA, ATCC 51575); experiment: MIC, micro-dilution broth, VREs; type: cell-based
Method: as §1

[7] = system: Vancomycin intermediate resistant S. aureus; experiment: MIC, micro-dilution broth, VISA; type: cell-based
Method: as §1

VREs ATCC 51575 = type: in vivo, E. faecalis; conditions: CD-1 mice, 12 mg/kg i.p. once daily, three doses
Method: Female CD-1 mice 6 to 8 weeks of age and weighing 20 to 25 g were used in this study. On day −7, all mice were injected intravenously (i.v.) with 0.2 mL of 0.2% λ-carrageenan to increase their susceptibility to bacterial renal infection. λ-Carrageenan increases mice susceptibility to renal infection following i.v. injection, possibly by forming a lattice structure in renal tissue and forming a support structure for bacterial attachment and growth. Bacterial strains that fail to cause renal infection in normal mice produce significant renal infections in λ-carrageenan-treated mice. On day 0, all mice were injected i.v. with 0.2 mL of the bacterial culture (VREs ATCC 51575, 10^8 CFU/mouse) through the tail vein. Four hours after the bacterial inoculation, mice were treated intraperitoneally (i.p.) with vancomycin, compound 4 and linezolid at 12 mg/kg of body weight or 0.2 mL of saline (0.9% NaCl) control (n=5). All the test compounds or saline were administered once daily for an additional two consecutive days for a total of three doses. All mice were sacrificed on day 3. Both kidneys from each mouse were removed aseptically and homogenized in 10 mL of saline. The dilutions of the homogenate were plated onto sheep blood agar plates, which were incubated overnight at about 37° C. The bacterial titer was expressed as log10 CFU/g of kidney weight.

[8] = system: NDM-1 expressing Klebsiella pneumoniae R3949; experiment: microbe, parasite or virus in culture; type: cell-based; conditions: for MIC: Klebsiella pneumoniae
Method: as §1, §3

[9] = system: NDM-1 expressing Klebsiella pneumoniae R3934; experiment: microbe, parasite or virus in culture; type: cell-based; conditions: for MIC: Klebsiella pneumoniae
Method: as §1, §3

[10] = system: NDM-1 expressing Klebsiella pneumoniae ATCC BAA2146; experiment: microbe, parasite or virus in culture; type: cell-based; conditions: for MIC: Klebsiella pneumoniae
Method: as §1, §3

[11] = system: NDM-1 expressing Escherichia coli R3336; experiment: microbe, parasite or virus in culture; type: cell-based; conditions: for MIC: Escherichia coli
Method: as §1, §3

[12] = system: meropenem-resistant NDM-1 K. pneumoniae R3934; experiment: Sepsis infection model in mice; type: in vivo; conditions: CD-1 mice, i.p., 10 mg/kg alone, 1 h and 24 h post-infection
Method: Sepsis infection model: About six-week-old, female CD-1 mice (weight, ˜19-24 g) were used for the experiments. Mice were infected intraperitoneally (i.p.) with a dose of ˜10^6 CFU/mouse of meropenem-resistant NDM-1 K. pneumoniae R3934. Then, mice were treated twice at 1 h and 24 h post-infection with a specified i.p. dose of either saline, meropenem (10 mg/kg), compound 4 (10 mg/kg), or a combination of compound 4 (10 mg/kg) and meropenem (10 mg/kg). Here, colistin (5 mg/kg) was used as a positive control. Mice were euthanized after 48 h post-infection and then liver, spleen, kidney and lungs were collected to find out the bacterial density in these organs. Organs were placed into 10 ml sterile saline on ice, and then homogenized. The dilutions of the homogenate were plated onto agar plates, which were incubated for 24 h at 37° C. The bacterial titer was expressed as log10 CFU/g of organ weight.

NDM-1 enzyme = biological target: T1, NDM-1 enzyme (Klebsiella pneumoniae, UniProt C7C422); experiment: NDM-1 enzyme inhibition, nitrocefin substrate; type: biochemical; conditions: nitrocefin as substrate
T1 construct: made in house; host or cells: E. coli BL21 (DE3)
Method: The NDM-1 was produced by E. coli BL21 (DE3) carrying pET30a-NDM-1 in LB medium. Initially, the purified NDM-1 enzyme (5 nM, HEPES buffer, pH-7.4) was supplemented with 20 μM ZnSO4 for 30 min. Next, the enzyme was pre-incubated with the inhibitor (compound 4) for 20 min prior to the initiation of the assay by the addition of the substrate (Nitrocefin, 30 μM). Assays were read in 96-well microplate format at 490 nm (absorbance) using TECAN plate reader (Infinite Pro.) at 37° C. IC50s were deduced from a plot of percent loss of activity versus inhibitor concentration.

MRSA = experiment: Resistance development study, serial passages; type: cell-based, S. aureus; conditions: passaged at MIC/2
Method: MIC values of the compound 4 and vancomycin were determined against MRSA as described above. For the next day MIC experiment, the bacterial dilution was made by using the bacteria from sub-MIC concentration of the compounds (at MIC/2). Then, the concentration of this bacteria was adjusted to ˜10^5 CFU/mL based on OD600 and subjected to next MIC assay. After a 24 h incubation period, again bacterial dilution was prepared by using the bacterial suspension from sub-MIC concentration of the compound (at MIC/2) and assayed for another MIC experiment. The process was repeated for 25 passages, and the fold increase in MIC was determined. […] Thus bacteria were unable in acquiring resistance to this compound and this emphasizes the longevity of such compounds in clinics.

[13] = read-out: MIC of Meropenem in absence of compound 4
[14] = read-out: MIC of Meropenem in absence of compound 5

T1 sequence (C7C422 29-270, looked up, species assumed): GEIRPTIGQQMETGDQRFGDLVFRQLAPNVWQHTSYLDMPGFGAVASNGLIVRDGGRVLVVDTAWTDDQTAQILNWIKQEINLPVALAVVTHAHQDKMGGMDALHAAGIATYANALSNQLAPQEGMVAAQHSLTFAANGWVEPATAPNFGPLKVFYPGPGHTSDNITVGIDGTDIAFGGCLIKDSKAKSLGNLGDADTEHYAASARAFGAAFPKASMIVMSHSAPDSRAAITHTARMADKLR

NCCCCCCN(Cc1ccccn1)Cc1ccccn1 [Compound 3, dipicolyl-1,6-hexadiamine]
MIC ([1]; MRSA): >100 µM | MIC ([2]; VREm): >100 µM | antibacterial activity against any of the bacteria tested [3]: did not show any activity | resensitization of meropenem-resistant NDM-1 bacteria to meropenem (synergistic activity) [4]: did not show any appreciable synergistic activity | MIC ([5]; VSEm): >100 µM | MIC ([6]; VREs): >100 µM | MIC [7]: >100 µM

CC(=O)NC[C@H]1CN(c2ccc(N3CCOCC3)c(F)c2)C(=O)O1 [Linezolid, linezolid, reference compound]
reduction of bacterial titer from infected kidneys in comparison to vancomycin (VREs ATCC 51575): reduced bacterial titer from the infected kidneys more effectively | CFU reduction compared to vehicle treated control (saline) (VREs ATCC 51575; kidneys): ~4 log10 CFU

C[C@@H](O)[C@H]1C(=O)N2C(C(=O)O)=C(S[C@@H]3CN[C@H](C(=O)N(C)C)C3)[C@H](C)[C@H]12 [Meropenem, meropenem, reference compound]
MIC [8, 13]: > 100 µg/mL | MIC [8, 14]: > 100 µg/mL | MIC [9, 13]: > 100 µg/mL | MIC [9, 14]: > 100 µg/mL | MIC ([10]; ATCCBAA2146, read-out: MIC of Meropenem in absence of compound 4): > 100 µg/mL | MIC ([10]; ATCCBAA2146, read-out: MIC of Meropenem in absence of compound 5): > 100 µg/mL | MIC [11, 13]: > 100 µg/mL | MIC [11, 14]: > 100 µg/mL | in-vivo antibacterial activity, bacterial titer in organs [12]: did not show any activity

CN[C@H](CC(C)C)C(=O)N[C@H]1C(=O)N[C@@H](CC(N)=O)C(=O)N[C@H]2C(=O)N[C@H]3C(=O)N[C@H](C(=O)N[C@H](C(=O)O)c4cc(O)cc(O)c4-c4cc3ccc4O)[C@H](O)c3ccc(c(Cl)c3)Oc3cc2cc(c3O[C@H]2OC(CO)[C@H](O)C(O)C2O[C@H]2C[C@@](C)(N)[C@@H](O)C(C)O2)Oc2ccc(cc2Cl)[C@H]1O (stereo partly shown) [Vancomycin, reference compound]
MIC ([1]; Staphylococcus aureus): 0.63 µM | MIC ([2]; Enterococcus faecium, ATCC51559): 750 µM | MIC ([5]; Enterococcus faecium, ATCC19634): 0.6 µM | MIC ([6]; Enterococcus faecalis, ATCC51575): 250 µM | MIC ([7]; Staphylococcus aureus): 13 µM | effect on the activity of NDM-1 (NDM-1 enzyme): no effect | fold increase in MIC after 25 serial passages (MRSA): ~16 fold | passages after which the MIC value started increasing (MRSA): 7 passages

Dipicolyl-Vancomycin-Zinc Complex [Compound 5]
MIC ([1]; MRSA): 0.3 µM | MIC ([2]; VREm): 0.6 µM | fold more active than vancomycin ([2]; VREm (VRE), ratio of MIC values): about 1250 fold | MIC of Meropenem in presence of compound 5 at 12 μM ([8]; Klebsiella pneumoniae R3949): >100 µg/mL | MIC of Meropenem in presence of compound 5 at 12 μM ([9]; Klebsiella pneumoniae R3934): >100 µg/mL | MIC of Meropenem in presence of compound 5 at 12 μM ([10]; Klebsiella pneumoniae ATCC BAA2146): >100 µg/mL | MIC of Meropenem in presence of compound 5 at 12 μM ([11]; Escherichia coli R3336): >100 µg/mL | resensitization of meropenem-resistant NDM-1 bacteria to meropenem (synergistic activity) [4]: did not restore the activity of meropenem | MIC ([5]; VSEm): 0.31 µM | MIC ([6]; VREs): 1.5 µM | MIC [7]: 0.3 µM
